Results from ChEMBL document CHEMBL3621085, “Tetrazole regioisomers in the development of nitro group-containing antitubercular agents” (Medchemcomm, 2015).
Converted amounts (≈) assume the structure as drawn.

Tests used:
[1] = system: Mycobacterium tuberculosis; experiment: Antimycobacterial activity against Mycobacterium tuberculosis My 331/88 after 14 days by micromethod; assay type: functional; details: My 331/88, 336 h
[2] = system: Mycobacterium avium; experiment: Antimycobacterial activity against Mycobacterium avium My 330/88 after 14 days by micromethod; assay type: functional; details: My 330/88, 336 h
[3] = system: Mycobacterium tuberculosis; experiment: Antimycobacterial activity against Mycobacterium tuberculosis My 331/88 after 21 days by micromethod; assay type: functional; details: My 331/88, 504 h
[4] = system: Mycobacterium avium; experiment: Antimycobacterial activity against Mycobacterium avium My 330/88 after 21 days by micromethod; assay type: functional; details: My 330/88, 504 h
[5] = system: Mycobacterium kansasii; experiment: Antimycobacterial activity against Mycobacterium kansasii My 235/80 after 7 days by micromethod; assay type: functional; details: My 235/80, 168 h
[6] = system: Mycobacterium kansasii; experiment: Antimycobacterial activity against Mycobacterium kansasii My 235/80 after 14 days by micromethod; assay type: functional; details: My 235/80, 336 h
[7] = system: Mycobacterium kansasii; experiment: Antimycobacterial activity against Mycobacterium kansasii My 235/80 after 21 days by micromethod; assay type: functional; details: My 235/80, 504 h
[8] = system: Mycobacterium kansasii; experiment: Antimycobacterial activity against Mycobacterium kansasii 6509/96 after 7 days by micromethod; assay type: functional; details: 6509/96, 168 h
[9] = system: Mycobacterium kansasii; experiment: Antimycobacterial activity against Mycobacterium kansasii 6509/96 after 14 days by micromethod; assay type: functional; details: 6509/96, 336 h
[10] = system: Mycobacterium kansasii; experiment: Antimycobacterial activity against Mycobacterium kansasii 6509/96 after 21 days by micromethod; assay type: functional; details: 6509/96, 504 h
[11] = Cytotoxicity against CHOK1 cells assessed as viability after 24 hrs by MTT assay; assay type: cell-based; details: Cricetulus griseus, CHO-K1, 24 h

## O=[N+]([O-])c1ccc(C[Se]c2nnn(Cc3ccccc3)n2)c([N+](=O)[O-])c1
[1]
  MIC: 16 µM (≈ 6.71 µg/mL)
[2]
  MIC: 62 µM (≈ 26 µg/mL)
[3]
  MIC: 16 µM (≈ 6.71 µg/mL)
[4]
  MIC: 62 µM (≈ 26 µg/mL)
[5]
  MIC: 16 µM (≈ 6.71 µg/mL)
[6]
  MIC: 16 µM (≈ 6.71 µg/mL)
[7]
  MIC: 32 µM (≈ 13.4 µg/mL)
[8]
  MIC: 32 µM (≈ 13.4 µg/mL)
[9]
  MIC: 32 µM (≈ 13.4 µg/mL)
[10]
  MIC: 62 µM (≈ 26 µg/mL)
[11]
  IC50: 22 µM

## Cn1nnnc1SCc1ccc([N+](=O)[O-])cc1[N+](=O)[O-]
[1]
  MIC: 16 µM (≈ 4.74 µg/mL)
[2]
  MIC: 125 µM (≈ 37 µg/mL)
[3]
  MIC: 16 µM (≈ 4.74 µg/mL)
[4]
  MIC: 500 µM (≈ 148 µg/mL)
[5]
  MIC: 125 µM (≈ 37 µg/mL)
[6]
  MIC: 500 µM (≈ 148 µg/mL)
[7]
  MIC: 500 µM (≈ 148 µg/mL)
[8]
  MIC: 125 µM (≈ 37 µg/mL)
[9]
  MIC: 500 µM (≈ 148 µg/mL)
[10]
  MIC: 500 µM (≈ 148 µg/mL)

## Cn1nnc(SCc2cc([N+](=O)[O-])cc([N+](=O)[O-])c2)n1
[1]
  MIC: 2 µM (≈ 0.593 µg/mL)
[2]
  MIC: 125 µM (≈ 37 µg/mL)
[3]
  MIC: 4 µM (≈ 1.19 µg/mL)
[4]
  MIC: 250 µM (≈ 74.1 µg/mL)
[5]
  MIC: 4 µM (≈ 1.19 µg/mL)
[6]
  MIC: 8 µM (≈ 2.37 µg/mL)
[7]
  MIC: 8 µM (≈ 2.37 µg/mL)
[8]
  MIC: 8 µM (≈ 2.37 µg/mL)
[9]
  MIC: 16 µM (≈ 4.74 µg/mL)
[10]
  MIC: 16 µM (≈ 4.74 µg/mL)

## COc1ccc(C[Se]c2nnnn2Cc2cc([N+](=O)[O-])cc([N+](=O)[O-])c2)cc1
[1]
  MIC: 16 µM (≈ 7.19 µg/mL)
[2]
  MIC: 125 µM (≈ 56.2 µg/mL)
[3]
  MIC: 16 µM (≈ 7.19 µg/mL)
[4]
  MIC: 125 µM (≈ 56.2 µg/mL)
[5]
  MIC: 16 µM (≈ 7.19 µg/mL)
[6]
  MIC: 32 µM (≈ 14.4 µg/mL)
[7]
  MIC: 62 µM (≈ 27.9 µg/mL)
[8]
  MIC: 16 µM (≈ 7.19 µg/mL)
[9]
  MIC: 32 µM (≈ 14.4 µg/mL)
[10]
  MIC: 62 µM (≈ 27.9 µg/mL)

## O=[N+]([O-])c1cc(CSc2nnn(Cc3ccc(Cl)c(Cl)c3)n2)cc([N+](=O)[O-])c1
[1]
  MIC: 1 µM (≈ 0.441 µg/mL)
[2]
  MIC: 125 µM (≈ 55.2 µg/mL)
[3]
  MIC: 1 µM (≈ 0.441 µg/mL)
[4]
  MIC: 125 µM (≈ 55.2 µg/mL)
[5]
  MIC: 8 µM (≈ 3.53 µg/mL)
[6]
  MIC: 16 µM (≈ 7.06 µg/mL)
[7]
  MIC: 32 µM (≈ 14.1 µg/mL)
[8]
  MIC: 16 µM (≈ 7.06 µg/mL)
[9]
  MIC: 32 µM (≈ 14.1 µg/mL)
[10]
  MIC: 32 µM (≈ 14.1 µg/mL)
[11]
  IC50: 150 µM

## O=[N+]([O-])c1cc(Cn2nnnc2[Se]Cc2ccccc2)cc([N+](=O)[O-])c1
[1]
  MIC: 8 µM (≈ 3.35 µg/mL)
[2]
  MIC: 32 µM (≈ 13.4 µg/mL)
[3]
  MIC: 8 µM (≈ 3.35 µg/mL)
[4]
  MIC: 32 µM (≈ 13.4 µg/mL)
[5]
  MIC: 8 µM (≈ 3.35 µg/mL)
[6]
  MIC: 16 µM (≈ 6.71 µg/mL)
[7]
  MIC: 32 µM (≈ 13.4 µg/mL)
[8]
  MIC: 16 µM (≈ 6.71 µg/mL)
[9]
  MIC: 32 µM (≈ 13.4 µg/mL)
[10]
  MIC: 32 µM (≈ 13.4 µg/mL)
[11]
  IC50: 85 µM

## O=[N+]([O-])c1ccc(CSc2nnn(Cc3ccc([N+](=O)[O-])cc3)n2)cc1
[1]
  MIC: 250 µM (≈ 93.1 µg/mL)
[2]
  MIC: 250 µM (≈ 93.1 µg/mL)
[3]
  MIC: 250 µM (≈ 93.1 µg/mL)
[4]
  MIC: 250 µM (≈ 93.1 µg/mL)
[5]
  MIC: 250 µM (≈ 93.1 µg/mL)
[6]
  MIC: 250 µM (≈ 93.1 µg/mL)
[7]
  MIC: 250 µM (≈ 93.1 µg/mL)
[8]
  MIC: 250 µM (≈ 93.1 µg/mL)
[9]
  MIC: 250 µM (≈ 93.1 µg/mL)
[10]
  MIC: 250 µM (≈ 93.1 µg/mL)

## NNC(=O)c1ccncc1 [ISONIAZID]
[1]
  MIC: 0.5 µM (≈ 0.0686 µg/mL)
[2]
  MIC: 250 µM (≈ 34.3 µg/mL)
[3]
  MIC: 1 µM (≈ 0.137 µg/mL)
[4]
  MIC: 250 µM (≈ 34.3 µg/mL)
[5]
  MIC: 250 µM (≈ 34.3 µg/mL)
[6]
  MIC: 250 µM (≈ 34.3 µg/mL)
[7]
  MIC: 250 µM (≈ 34.3 µg/mL)
[8]
  MIC: 4 µM (≈ 0.549 µg/mL)
[9]
  MIC: 4 µM (≈ 0.549 µg/mL)
[10]
  MIC: 4 µM (≈ 0.549 µg/mL)

## Cn1nnc([Se]Cc2cc([N+](=O)[O-])cc([N+](=O)[O-])c2)n1
[1]
  MIC: 1 µM (≈ 0.343 µg/mL)
[2]
  MIC: 250 µM (≈ 85.8 µg/mL)
[3]
  MIC: 2 µM (≈ 0.686 µg/mL)
[4]
  MIC: 250 µM (≈ 85.8 µg/mL)
[5]
  MIC: 2 µM (≈ 0.686 µg/mL)
[6]
  MIC: 4 µM (≈ 1.37 µg/mL)
[7]
  MIC: 8 µM (≈ 2.75 µg/mL)
[8]
  MIC: 2 µM (≈ 0.686 µg/mL)
[9]
  MIC: 4 µM (≈ 1.37 µg/mL)
[10]
  MIC: 4 µM (≈ 1.37 µg/mL)

## Cn1nnc([Se]Cc2ccc([N+](=O)[O-])cc2[N+](=O)[O-])n1
[1]
  MIC: 16 µM (≈ 5.49 µg/mL)
[2]
  MIC: 62 µM (≈ 21.3 µg/mL)
[3]
  MIC: 16 µM (≈ 5.49 µg/mL)
[4]
  MIC: 62 µM (≈ 21.3 µg/mL)
[5]
  MIC: 32 µM (≈ 11 µg/mL)
[6]
  MIC: 125 µM (≈ 42.9 µg/mL)
[7]
  MIC: 125 µM (≈ 42.9 µg/mL)
[8]
  MIC: 16 µM (≈ 5.49 µg/mL)
[9]
  MIC: 62 µM (≈ 21.3 µg/mL)
[10]
  MIC: 125 µM (≈ 42.9 µg/mL)

## Cn1nnc(SCc2ccc([N+](=O)[O-])cc2[N+](=O)[O-])n1
[1]
  MIC: 4 µM (≈ 1.19 µg/mL)
[2]
  MIC: 125 µM (≈ 37 µg/mL)
[3]
  MIC: 8 µM (≈ 2.37 µg/mL)
[4]
  MIC: 125 µM (≈ 37 µg/mL)
[5]
  MIC: 32 µM (≈ 9.48 µg/mL)
[6]
  MIC: 125 µM (≈ 37 µg/mL)
[7]
  MIC: 125 µM (≈ 37 µg/mL)
[8]
  MIC: 32 µM (≈ 9.48 µg/mL)
[9]
  MIC: 125 µM (≈ 37 µg/mL)
[10]
  MIC: 125 µM (≈ 37 µg/mL)

## Cn1nnnc1[Se]Cc1cc([N+](=O)[O-])cc([N+](=O)[O-])c1
[1]
  MIC: 8 µM (≈ 2.75 µg/mL)
[2]
  MIC: 500 µM (≈ 172 µg/mL)
[3]
  MIC: 8 µM (≈ 2.75 µg/mL)
[4]
  MIC: 500 µM (≈ 172 µg/mL)
[5]
  MIC: 8 µM (≈ 2.75 µg/mL)
[6]
  MIC: 32 µM (≈ 11 µg/mL)
[7]
  MIC: 32 µM (≈ 11 µg/mL)
[8]
  MIC: 16 µM (≈ 5.49 µg/mL)
[9]
  MIC: 32 µM (≈ 11 µg/mL)
[10]
  MIC: 32 µM (≈ 11 µg/mL)

## O=[N+]([O-])c1cc(Cn2nnnc2SCc2ccccc2)cc([N+](=O)[O-])c1
[1]
  MIC: 8 µM (≈ 2.98 µg/mL)
[2]
  MIC: 125 µM (≈ 46.5 µg/mL)
[3]
  MIC: 8 µM (≈ 2.98 µg/mL)
[4]
  MIC: 125 µM (≈ 46.5 µg/mL)
[5]
  MIC: 32 µM (≈ 11.9 µg/mL)
[6]
  MIC: 62 µM (≈ 23.1 µg/mL)
[7]
  MIC: 62 µM (≈ 23.1 µg/mL)
[8]
  MIC: 16 µM (≈ 5.96 µg/mL)
[9]
  MIC: 32 µM (≈ 11.9 µg/mL)
[10]
  MIC: 32 µM (≈ 11.9 µg/mL)
[11]
  IC50: 115 µM

## O=[N+]([O-])c1cc(CSc2nnnn2Cc2ccc(Cl)c(Cl)c2)cc([N+](=O)[O-])c1
[1]
  MIC: 2 µM (≈ 0.883 µg/mL)
[2]
  MIC: 125 µM (≈ 55.2 µg/mL)
[3]
  MIC: 2 µM (≈ 0.883 µg/mL)
[4]
  MIC: 125 µM (≈ 55.2 µg/mL)
[5]
  MIC: 2 µM (≈ 0.883 µg/mL)
[6]
  MIC: 4 µM (≈ 1.77 µg/mL)
[7]
  MIC: 4 µM (≈ 1.77 µg/mL)
[8]
  MIC: 2 µM (≈ 0.883 µg/mL)
[9]
  MIC: 4 µM (≈ 1.77 µg/mL)
[10]
  MIC: 8 µM (≈ 3.53 µg/mL)
[11]
  IC50: 140 µM
